From patent publication US4743585A (Warner-Lambert Company, priority 1986, dated 1988)

Molecular target: T1, renin (Homo sapiens, UniProt P00797)
T1 sequence (P00797 67-406): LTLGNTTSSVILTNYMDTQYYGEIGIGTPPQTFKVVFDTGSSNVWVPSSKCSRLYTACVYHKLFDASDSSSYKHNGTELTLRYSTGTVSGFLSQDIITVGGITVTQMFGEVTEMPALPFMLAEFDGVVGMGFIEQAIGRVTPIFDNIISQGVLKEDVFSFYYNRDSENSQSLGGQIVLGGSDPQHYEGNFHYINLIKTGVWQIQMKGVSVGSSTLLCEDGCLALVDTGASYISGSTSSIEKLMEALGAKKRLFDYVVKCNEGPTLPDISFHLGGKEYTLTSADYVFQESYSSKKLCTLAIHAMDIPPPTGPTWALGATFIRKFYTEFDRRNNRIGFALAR
Assay: in vitro renin inhibitory activity, standard radioimmunoassay for angiotensin I
Assay type: biochemical
Experimental: The effectiveness of the aforementioned compounds is determined by a test for in vitro renin inhibitory activity. This activity is determined by a standard radioimmunoassay for angiotensin I. In this assay the enzyme, renin, incubated for two hours at 37° in the presence of a substrate, angiotensinogen, generates the product, angiotensin I. Test compounds are added to the incubation mixture.

Structure (SMILES)	IC50
CC(C)C[C@H](NC(=O)C[C@H](O)[C@H](CC(C)C)NC(=O)C(Cc1c[nH]cn1)CC(O)[C@H](Cc1ccccc1)NC(=O)OC(C)(C)C)C(=O)NCc1ccccc1 (single isomer, unassigned) [Example 30, BOC-PHE[CHOHCH2 ]HIS-STA-LEU-NHCH2 Ph]	30 µM
CC(C)C[C@H](NC(=O)C[C@H](O)[C@H](CC1CCCCC1)NC(=O)C/C=C/[C@H](Cc1ccccc1)NC(=O)OC(C)(C)C)C(=O)NCc1cccc(CNC(=O)OCc2ccccc2)c1 [Example 8]	8 µM
CC(C)CC(NC(=O)CCC(=O)C(Cc1ccccc1)NC(=O)c1ccccc1)C(O)CC(=O)NC(C)C(=O)NC(CC(C)C)C(O)CC(=O)NCc1ccccc1 (stereo not drawn) [Example 48]	30 µM
CC(C)C[C@H](NC(=O)[C@H](C)NC(=O)C[C@H](O)[C@H](CC(C)C)NC(=O)[C@H](Cc1ccccc1)NC[C@H](Cc1ccccc1)NC(=O)OC(C)(C)C)[C@@H](O)CC(=O)NCc1ccccc1 [Example 59, BOC-PHE[CH2 NH]PHE-STA-ALA-STA-NHCH2 Ph]	5.6 µM
CC(C)C[C@H](NC(=O)CCC(=O)C(Cc1ccccc1)NC(=O)OC(C)(C)C)[C@@H](O)CC(=O)N[C@@H](C)C(=O)N[C@@H](CC(C)C)[C@@H](O)CC(=O)NCc1ccccc1 (stereo partly drawn) [Example 50, 5,13-dihydroxy-9-methyl-6,14-bis(2-methylpropyl)-3,8,11,16,19-pentaoxo-1-phenyl-20-(phenylmethyl)-2,7,10,15,21-pentaazadocosan-22-oic acid, 1,1-dimethylethyl ester; (5S,7S,13S,14S,20RS)]	30 µM
CC(C)CC(=O)N[C@@H](Cc1ccccc1)C(=O)N[C@@H](Cc1c[nH]cn1)C(=O)N[C@@H](CC(C)C)[C@@H](O)CC(=O)N[C@H](CNCc1ccccc1)CC(C)C [Example 58, IVA-PHE-HIS-STA-LEU[CH2 NH]CH2 Ph]	1.9 µM
CC(C)C[C@H](NC(=O)C[C@H](O)[C@H](CC1CCCCC1)NC(=O)CC1OC1[C@H](Cc1ccccc1)NC(=O)OC(C)(C)C)C(=O)NCc1cccc(CNC(=O)OCc2ccccc2)c1 (stereo partly drawn) [Example 13]	2.6 µM
CC(C)C[C@H](NC(=O)C[C@H](O)[C@H](CC1CCCCC1)NC(=O)CCC[C@H](Cc1ccccc1)NC(=O)OC(C)(C)C)C(=O)NCc1cccc(CN)c1 [Example 36]	63 µM
CC(C)CC(=O)N[C@@H](Cc1ccccc1)C(=O)N[C@@H](Cc1c[nH]cn1)C(=O)N[C@H](CN[C@@H](CC(C)C)C(=O)NCc1ccccc1)CC(C)C [Example 65, L-histidinamide, N-(3-methyl-1-oxobutyl)-L-phenylalanyl-N-[3-methyl-1-[[[3-methyl-1-[[(phenylmethyl)amino]carbonyl]butyl]amino]methyl]butyl], [S-(R*,R*)]]	7.7 µM
CC(C)CC(NC(=O)CC(O)C(CC(C)C)NC(=O)CC(O)C(O)C(CC1CCCCC1)NC(=O)OC(C)(C)C)C(=O)NCc1ccccc1 (single isomer, unassigned) [Example 17, 15-(cyclohexylmethyl)-8,13,14-trihydroxy-4,9-bis(2-methylpropyl)-3,6,11-trioxo-1-phenyl-2,5,10,16-tetraazaheptadecan-17-oic acid, 1,1-dimethylethyl ester]	6.5 µM
CC(C)C[C@H](NC(=O)C(/C=C/[C@H](Cc1ccccc1)NC(=O)OC(C)(C)C)Cc1ccccc1)[C@@H](O)CC(=O)N[C@@H](C)C(=O)N[C@@H](CC(C)C)[C@@H](O)CC(=O)NCc1ccccc1 (stereo partly drawn) [Example 2, (E)-5,13-dihydroxy-9-methyl-6,14-bis(2-methylpropyl)-3,8,11,16-tetraoxo-1-phenyl-17,20-bis(phenylmethyl)-2,7,10,15,21-pentaazadocos-18-en-22-oic acid, 1,1-dimethylethyl ester]	12 µM
CC(C)C[C@H](NC(=O)C[C@H](O)[C@H](CC1CCCCC1)NC(=O)/C=C/C(O)[C@H](Cc1ccccc1)NC(=O)OC(C)(C)C)C(=O)NCc1cccc(CNC(=O)OCc2ccccc2)c1 (stereo partly drawn) [Example 21]	0.47 µM
CC(C)C[C@H](NC(=O)C[C@H](O)[C@H](CC(C)C)NC(=O)[C@H](Cc1cncn1COCc1ccccc1)NC[C@H](Cc1ccccc1)NC(=O)OC(C)(C)C)C(=O)NCc1ccccc1 [Example 62, BOC-PHE[CH2 NH]HIS(BOM)-STA-LEU-NHCH2 Ph]	16 µM
CC(C)CC(NC(=O)CC(O)C(CC(C)C)NC(=O)C(Cc1ccccc1)SCC(Cc1ccccc1)NC(=O)CCCC(=O)O)C(=O)NCc1ccccc1 (stereo not drawn) [Example 44, 8-hydroxy-4,9-bis(2-methylpropyl)-3,6,11,17-tetraoxo-1-phenyl-12,15-bis(phenylmethyl)-13-thia-2,5,10,16-tetraazaheneicosan-21-oic acid]	30 µM
CC(C)CC(=O)N[C@@H](Cc1ccccc1)C(=O)N[C@@H](Cc1c[nH]cn1)C(=O)NC(CC(C)C)C(O)CC(CC(C)C)C(=O)NCc1ccccc1 (stereo partly drawn) [Example 76, L-Histidinamide, N-(3-methyl-1-oxobutyl)-L-phenylalanyl-N-[2-hydroxy-6-methyl-1-(2-methylpropyl)-4-[[(phenylmethyl)amino]carbonyl]heptyl]]	0.74 µM
CC(C)CC(=O)N[C@@H](CC(C)C)C(=O)CC(Cc1ccccc1)C(=O)N[C@@H](CC(C)C)[C@@H](O)CC(=O)N[C@@H](CC(C)C)C(=O)NCc1ccccc1 (single isomer, unassigned) [Example 32]	7.1 µM
CC(C)CC(NC(=O)CC(O)C(CC(C)C)NC(=O)CC(O)C(O)C(Cc1c[nH]c2ccccc12)NC(=O)OC(C)(C)C)C(=O)NCc1ccccc1 (stereo not drawn) [Example 18, 8,13,14-trihydroxy-15-(1H-indol-3-ylmethyl)-4,9-bis-(2-methylpropyl)-3,6,11-trioxo-1-phenyl-2,5,10,16-tetraazaheptadecan-17-oic acid, 1,1-dimethylethyl ester]	2.3 µM
CC(C)CC(COC(C(=O)NC(CC(C)C)C(O)CC(=O)NC(C)C(=O)NC(CC(C)C)C(O)CC(=O)NCc1ccccc1)c1ccccc1)NC(=O)OC(C)(C)C (stereo not drawn) [Example 75, 10,18-dihydroxy-14-methyl-3,9,17-tris-(2-methylpropyl)-7,12,15,20-tetraoxo-6,22-diphenyl-5-oxa-2,8,13,16,21-pentaazadocosanoic acid, 1,1-dimethylethyl ester]	20 µM
CC(C)CC(=O)NC(CCCC(=O)NC(CC(C)C)C(O)CC(=O)NC(CC(C)C)C(=O)NCc1ccccc1)Cc1ccccc1 (stereo not drawn) [Example 47, N-[2-hydroxy-4-[[3-methyl-1-[[(phenylmethyl)amino]carbonyl]butyl]amino]-1-(2-methylpropyl)-4-oxobutyl]-δ-[(3-methyl-1-oxobutyl)amino]benzenehexanamide]	26 µM
CC(C)CC(=O)N[C@@H](Cc1ccccc1)C(=O)N[C@@H](Cc1c[nH]cn1)C(=O)N[C@@H](CC1CCCCC1)C(O)CCC(=O)NCc1cccc(CN)c1 (stereo partly drawn) [Example 80]	2.1 µM
CC(C)C[C@H](NC(=O)C/C=C/[C@H](Cc1ccccc1)NC(=O)OC(C)(C)C)[C@@H](O)CC(=O)N[C@@H](C)C(=O)N[C@@H](CC(C)C)[C@@H](O)CC(=O)NCc1ccccc1 [Example 1, [5S-[5R*,6R*,9R*,13R*,14R*(E),20R*]]-5,13-dihydroxy-9-methyl-6,14-bis(2-methylpropyl)-3,8,11,16-tetraoxo-1-phenyl-20-(phenylmethyl)-2,7,10,15,21-pentaazadocos-18-en-22-oic acid, 1,1-dimethylethyl ester]	8.2 µM
CC(C)C[C@H](NC(=O)C[C@H](O)[C@H](CC1CCCCC1)NC(=O)CCC(O)[C@H](Cc1ccccc1)NC(=O)OC(C)(C)C)C(=O)NCc1cccc(CN)c1 (stereo partly drawn) [Example 24]	0.022 µM
CC[C@H](C)[C@H](NC[C@@H](NC(=O)CC(C)C)[C@@H](C)CC)C(=O)N[C@@H](CC(C)C)[C@@H](O)CC(=O)N[C@@H](CC(C)C)C(=O)NCc1ccccc1 [Example 73, 3,8,11,14-tetraazaoctadecanamide, 6-hydroxy-17-methyl-10,13-bis(1-methylpropyl)-2,7-bis(2-methylpropyl)-4,9,15-trioxo-N-(phenylmethyl)]	30 µM
CC(C)CC(=O)N[C@@H](Cc1ccccc1)C(=O)N[C@@H](Cc1c[nH]cn1)C(=O)N[C@@H](CC(C)C)[C@@H](O)CC(=O)N[C@@H](CC(C)C)CN(Cc1ccccc1)C(=O)OCc1ccccc1 [Example 57, L-histidinamide. N-(3-methyl-1-oxobutyl)-L-phenylalanyl-N-[2-hydroxy-4-[[3-methyl-1-[[[(phenylmethoxy)carbonyl](phenylmethyl)amino]methyl]butyl]amino]-1-(2-methylpropyl)-4-oxobutyl]-, [1S-[1R*,2R*,4(R*)]]-]	3 µM
CC(C)CC(NC(=O)CC(O)C(CC(C)C)NC(=O)/C=C/C(O)C(Cc1ccccc1)NC(=O)OC(C)(C)C)C(=O)NCc1ccccc1 (stereo not drawn) [Example 19, (E)-8,14-dihydroxy-4,9-bis(2-methylpropyl)-3,6,11-trioxo-1-phenyl-15-(phenylmethyl)-2,5,10,16-tetraazaheptadec-12-en-17-oic acid, 1,1-dimethylethyl ester]	2.1 µM
CC(C)CC(=O)N[C@@H](Cc1ccccc1)C(=O)N[C@@H](Cc1c[nH]cn1)C(=O)N[C@H](CN[C@@H](CC(C)C)C(=O)NCc1ccccc1)CC1CCCCC1 [Example 70, L-histidinamide, N-(3-methyl-1-oxobutyl)-L-phenylalanyl-N-[1-cyclohexylmethyl]-2-[[3-methyl-1-[[(phenylmethyl)amino]carbonyl]butyl]amino]ethyl]-, [S-(R*,R*)]]	0.28 µM
CC(C)CC(=O)N[C@@H](Cc1ccccc1)C(=O)N[C@@H](Cc1c[nH]cn1)C(=O)N[C@@H](CC1CCCCC1)C(O)CC(CC(C)C)C(=O)NCc1cccc(CN)c1 (stereo partly drawn) [Example 81]	0.054 µM
